For series [1], the system named is mixture of 12 microorganisms. Put plainly: Calculation of synergism of 573 and 651 combinations (Kull et al. method). It counts as cell-based. The conditions noted are these: for SI (synergy index, Qa'/QA + Qb'/.75 QB): <1 synergism, 1 additivity, >1 antagonism. The procedure:
Each single culture was inoculated to TSB agar slants and incubated for 2 days at 30° C. for C. albicans and all bacteria except E. coli and S. aureus, which were at 37° C., and incubated for 10-14 days at 25° C. for fungal cultures. The bacteria and fungi were then washed off the slants with phosphate buffer (0.125 M, pH 7.2) and inoculated into each test tube containing a given concentration and ratio of 573 and 886 to make final cell concentration of about 2×10^7 bacteria and 2×10^6 fungi per ml. […] Seven days after inoculation, 5 microliter of sample from each test tube (containing about 10^5 bacteria and 10^4 fungi from original inoculation) was removed and assessed for viable organisms by 1:50 dilution into TSB medium and checked for regrowth. No viable organisms were detected from the test tubes where MICs were observed. […] Each test tube was reinoculated 2 more times (a total of 3 inoculations) to determine the capacity and the longlasting activity of the combinations.
Synergism is determined by the industrially accepted method described by Kull, F. C.; Eisman, P. C.; Sylvestrowicz, H. D. and Mayer, R. L. in Applied Microbiology 9:538-541 (1961) using the ratio determined by [formula] wherein QA=concentration of compound A in parts per million (ppm), acting alone, which produced an end point
Qa=concentration of compound A in ppm, in the mixture, which produced an end point
QB=concentration of compound B in ppm, acting alone, which produced an end point
Qb=concentration of compound B in ppm, in the mixture, which produced an end point
When the sum of Qa/QA plus Qb/QB is greater than one, antagonism is indicated. When the sum is equal to one, additivity is indicated, and when the sum is less than one, synergism is indicated.
As shown, a wide range of concentration and ratios was tested. More importantly all the critical end-point activities for the combinations were covered. […] Thus, the end-point activities are based on the minimum concentrations of a given ratio of combination product that inhibit all three inoculations.
The end-point activity (MIC in ppm) is taken from Table 1.
QA is the end-point activity of 573 alone
QB is the end-point activity of 886 alone
Qa is the end-point activity 573 in the mixture of 573 and 886
Qb is the end-point activity of 886 in the mixture of 573 and 886.
Since 886 is 25% 573 and 75% 651, the total 573 (Qa') in the combinations is Qa+25% Qb, and the total 651 (Qb') in the combinations is 75% Qb. Total concentration of 573 and 651 in the mixture is Qa' and Qb'. The % 573 in the mixture is Qa'/(Qa'+Qb'), and %651 in the mixture is Qb'/(Qa'+Qb'.)
Therefore, the calculation of synergy index (SI) is Qa'/QA+Qb'/.75 QB. The most preferred synergy for 573 and 651 combinations is seen at 2.3%-4.5% of 651. Taking the synergy index of less than 0.5 as most significant, then a range of 2.3% to 8.5% of 651 in the 573/651 combinations is preferred.

A further series relates to skin of guinea pigs. The series can be described thus: Sensitization study, closed-patch test of Buehler. It counts as in vivo, guinea pig. Here is the method: The study was conducted to determine the sensitization potential of the synergistic combination of 3.5% 651 and 96.5% 573. The results were compared to the sensitization potential of 886 (containing 75% 651 and 25% 573) and pure 573.
The closed-patch test of Buehler Current Concepts in Cutaneous Toxicology, (New York: Academic Press 1970), pp. 25-40, is used to investigate the sensitization potential of the materials in the guinea pig. The combination (1.5% total active ingredient) at aqueous concentrations of 1000, 5000, 10000 and 15000 ppm a.i., the 886 (13.9% total active ingredient) at aqueous concentrations of 250, 500 and 750 ppm a.i. and the 573 (solid containing 99.5% total active ingredient) at aqueous concentrations of 5000, 15000 and 30000 ppm a.i. were applied topically to the skin of guinea pigs by means of occluded patches (0.4 ml per patch). All guinea pigs (10 per group at each concentration) received a total of ten 6-hr induction exposures over a 22 day period. In addition, a group of guinea pigs were treated with dry patches only and served as the naive control group. Two weeks after the last induction treatment guinea pigs induced with the combination were challenged with 3 concentrations of the combination in distilled water (1000, 5000 and 15000 ppm a.i.), those induced with 886 were challenged with 3 concentrations of 886 in distilled water (100, 250 and 750 ppm a.i.) and those induced with 573 alone were challenged with 3 concentrations of 573 in distilled water (1000, 5000 and 15000 ppm a.i.). Twenty-four (24) and 48 hr after the challenge doses, the application sites were examined for erythema reactions and graded from 0 to 3 in accordance with a pre-established scoring system. Reactions graded 1 or greater were judged to be skin sensitization reactions.
^a Guinea pigs received ten (6 hr.) induction exposures of the ten
materials (0.4 ml per exposure) over a 22 day period.
^b All guinea pigs received 0.4 ml of challenge doses as specified tw
weeks after the last induction dose.
^c Guinea pigs received sham treatment only.

Each structure is given as a SMILES string. Where “and” joins values, the source holds several entries; their conditions need not be identical. Equal values may be shown once.

Consider one compound from patent US5100905A, “Method for inhibiting growth of bacteria, fungi or algae by treatment with biocide composition” (Rohm and Haas Company, priority 1991, dated 1992).

As to `Cn1sccc1=O` [compound 573, 2-methyl-4-isothiazolin-3-one], the “Qa'/QA” value in series [1] (Expt. 1) and in series [1] (Expt. 2) was 1.00 throughout. Moreover, the “Qb'/QB* (QB* = QB × 75%)” value in series [1] (Expt. 1) and in series [1] (Expt. 2) was 0.00 in each case. The “Total 573 Qa' (Qa + 25% Qb) at end-point” value in series [1] (Expt. 1) is on record as 500.0 ppm; in series [1] (Expt. 2), 125.0 ppm. In addition, the “Total ppm Qa' + Qb' at end-point” value in series [1] (Expt. 1) is 500.0 ppm; in series [1] (Expt. 2), 125.0 ppm. For the same compound, the “SI (synergy index, Qa'/QA + Qb'/.75 QB)” value in series [1] (Expt. 1) and in series [1] (Expt. 2) was 1.00 each time. The “Overall incidence of responses” value with skin of guinea pigs (5000 and 15000 ppm induction, 1000, 5000 and 15000 ppm challenge) is recorded as 7 out of a possible 60 responses. In addition, the Erythema entry in the series with skin of guinea pigs (induction 5000 and 15000 ppm a.i., challenge 1000 ppm a.i.) is given as “no erythema was observed”. The “Erythema responses of 1 or greater at 24 and/or 48 hours” value in the series on skin of guinea pigs (induction 5000 ppm, challenge 1000 ppm (573)) is on record as 0/10; with skin of guinea pigs (induction 5000 ppm, challenge 5000 ppm (573)), 1/10; in the series with skin of guinea pigs (induction 5000 ppm, challenge 15000 ppm (573)) it was 2/10; in the series with skin of guinea pigs (induction 15000 ppm, challenge 1000 ppm (573)), 0/10; in the series on skin of guinea pigs (induction 15000 ppm, challenge 5000 ppm (573)) it was 1/10; in the series on skin of guinea pigs (induction 15000 ppm, challenge 15000 ppm (573)) it was 3/10. In addition, the “Erythema responses of 1 or greater at 24 and/or 48 hours” value in the series with skin of guinea pigs (induction 30000 ppm, challenge 1000 ppm) was 1/9; in the series on skin of guinea pigs (induction 30000 ppm, challenge 5000 ppm), 2/9; in the series on skin of guinea pigs (induction 30000 ppm, challenge 15000 ppm) it was 3/9; in the series with skin of guinea pigs (naive control (sham induction), challenge 15000 ppm 573) it was “No erythema was observed and 0/10”.
